The assay deals with T1, human M1 receptor (hCHRM1) (Homo sapiens, UniProt P11229).
T1 construct: expressed in transfected cells
T1 sequence (P11229 1-460): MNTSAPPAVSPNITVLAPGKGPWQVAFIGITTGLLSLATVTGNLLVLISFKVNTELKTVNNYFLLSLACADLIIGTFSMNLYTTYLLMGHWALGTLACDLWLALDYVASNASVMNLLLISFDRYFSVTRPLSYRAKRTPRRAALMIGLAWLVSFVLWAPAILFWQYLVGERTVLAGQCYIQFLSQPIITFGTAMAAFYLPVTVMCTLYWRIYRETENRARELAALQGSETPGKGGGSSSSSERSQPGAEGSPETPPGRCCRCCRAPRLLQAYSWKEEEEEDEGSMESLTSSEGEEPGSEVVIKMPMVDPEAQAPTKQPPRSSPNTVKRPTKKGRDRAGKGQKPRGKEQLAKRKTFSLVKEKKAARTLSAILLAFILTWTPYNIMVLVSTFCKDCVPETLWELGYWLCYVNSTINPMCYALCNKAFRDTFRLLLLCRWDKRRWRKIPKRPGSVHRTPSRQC
Briefly: Measurement of M1 receptor positive allosteric modulator (M1PAM) activity, Ca2+ fluorescence by FLIPRtetra (Experimental Example 1). In kind it is cell-based. Conditions: for activity (%) at 10 μM: 10 μM test compound, 100% = acetylcholine 1 μM, 0% = DMSO; for EC50: inflection point of concentration-dependent curve, in presence of acetylcholine at EC20 (0.8-1.0 nM), CHO-K1 cells expressing hCHRM1, read-out: IP value. The method, then:
Measurement of M1 Receptor Positive Allosteric Modulator (M1PAM) Activity
The activity of a test compound in the presence of acetylcholine at EC20 concentration (final concentration 0.8-1.0 nM), which affords an action corresponding to about 20% of the maximum activity, was measured as PAM activity. The method is as follows. CHO-K1 cells stably expressing a human M1 receptor (hCHRM1) were plated on a 384-well black clear bottom plate (BD Falcon) at 5,000 cells/well, and cultured in an incubator at 37° C., 5% CO2 for 1 day. The medium in the cell plate was removed, and a dye solution (prepared by adding Recording medium (DOJINDO LABORATORIES) to a final concentration of 1×concentration, Fluo-4 AM (DOJINDO LABORATORIES) to a final concentration of 2.5 μg/mL, Pluronic F127 (DOJINDO LABORATORIES) to a final concentration of 0.08%, and probenecid (DOJINDO LABORATORIES) to a final concentration of 1.25 mM to assay buffer (HBSS (Invitrogen), 20 mM HEPES (Invitrogen), 0.1% BSA (Wako Pure Chemical Industries, Ltd.))) was added at 30 μL/well. The cells were left standing in the incubator at 37° C., 5% CO2 for 30 min, and further left standing at room temperature for 30 min. A test compound prepared by diluting with assay buffer containing 3.2-4.0 nM acetylcholine was added at 10 μL/well, and the fluorescence was measured by FLIPRtetra (Molecular Devices) for 1 min every 1 second. With the definition that the amount of change in the fluorescence on addition of acetylcholine (final concentration 1 μM) is 100% and that on addition of DMSO instead of a test compound is 0%, the activity (%) of the test compound was calculated, and the inflection point in the concentration-dependent curve of the test compound was calculated as IP values.

Consider `N#CC1CCN(Cc2cc3c(c4ccccc24)OCN([C@H]2CCC[C@@H]2O)C3=O)CC1` [Example 70, 1-((3-((1S,2S)-2-hydroxycyclopentyl)-4-oxo-3,4-dihydro-2H-naphtho[2,1-e][1,3]oxazin-6-yl)methyl)piperidine-4-carbonitrile], for which the “activity (%) at 10 μM” value amounted to 104% and the EC50 is 52 nM.

As to `Cc1c(Cc2ccc(-n3cccn3)cc2)cc2c(c1C)OCN([C@H]1COCC[C@@H]1O)C2=O` [Example 23, 3-[(3S,4S)-4-hydroxytetrahydro-2H-pyran-3-yl]-7,8-dimethyl-6-[4-(1H-pyrazol-1-yl)benzyl]-2,3-dihydro-4H-1,3-benzoxazin-4-one], the “activity (%) at 10 μM” value was 114% and the EC50 amounted to 2 nM.

For the molecule `Cn1cc(-c2ccc(Cc3cc4c(c5ccccc35)OCNC4=O)cn2)cn1` [Example 47, 6-((6-(1-methyl-1H-pyrazol-4-yl)pyridin-3-yl)methyl)-2,3-dihydro-4H-naphtho[2,1-e][1,3]oxazin-4-one], the “activity (%) at 10 μM” value came out at 110% and the EC50 was 5.3 nM.

On to `Cc1c(Cc2ccc(-n3cccn3)cc2)cc2c(c1F)OCN(CC1CCCO1)C2=O` (stereo not drawn) [Example 78, 8-fluoro-7-methyl-6-(4-(1H-pyrazol-1-yl)benzyl)-3-(tetrahydrofuran-2-ylmethyl)-2,3-dihydro-4H-1,3-benzoxazin-4-one], for which the “activity (%) at 10 μM” value worked out at 104% and the EC50 was 75 nM.

Turning to `CCc1ccc(Cc2cc3c(c4ccccc24)OCN([C@H]2COCC[C@@H]2O)C3=O)cn1` [Example 38, 1,5-anhydro-2,4-dideoxy-2-(6-((6-ethylpyridin-3-yl)methyl)-4-oxo-2H-naphtho[2,1-e][1,3]oxazin-3(4H)-yl)-L-threo-pentitol], the “activity (%) at 10 μM” value came to 99% and the EC50 came to 1.5 nM.

With `Cc1c(Cc2ccc(-c3ccn(C)n3)nc2)cc2c(c1C)OCN([C@H]1COCC[C@@H]1O)C2=O` [Example 37, 1,5-anhydro-2,4-dideoxy-2-(7,8-dimethyl-6-((6-(1-methyl-1H-pyrazol-3-yl)pyridin-3-yl)methyl)-4-oxo-2H-1,3-benzoxazin-3(4H)-yl)-L-threo-pentitol], the “activity (%) at 10 μM” value was 109% and the EC50 worked out at 1.2 nM.

Turning to `Cn1cc(-c2ccc(Cc3cc4c(c5ccccc35)OCN([C@H]3CCCC[C@@H]3O)C4=O)cn2)cn1` (relative stereo) [Example 41, 3-(trans-2-hydroxycyclohexyl)-6-((6-(1-methyl-1H-pyrazol-4-yl)pyridin-3-yl)methyl)-2,3-dihydro-4H-naphtho[2,1-e][1,3]oxazin-4-one], the “activity (%) at 10 μM” value amounted to 104% and the EC50 was 1.8 nM.

Take `Cc1c(Cc2ccc(Cl)nc2)cc2c(c1C)OCN([C@H]1COCC[C@@H]1O)C2=O` (relative stereo) [Example 31, 1,5-anhydro-2-(6-((6-chloropyridin-3-yl)methyl)-7,8-dimethyl-4-oxo-2H-1,3-benzoxazin-3(4H)-yl)-2,4-dideoxy-threo-pentitol]: the “activity (%) at 10 μM” value was 99% and the EC50 was 17 nM.

As to `Cc1ccc(Cc2cc3c(c4ccccc24)OCN([C@H]2COCC[C@@H]2O)C3=O)cn1` [Example 133, 1,5-anhydro-2,4-dideoxy-2-(6-((6-methylpyridin-3-yl)methyl)-4-oxo-2H-naphtho[2,1-e][1,3]oxazin-3(4H)-yl)-L-threo-pentitol], the “activity (%) at 10 μM” value was 91% and the EC50 amounted to 3.6 nM.

Consider `O=C1NCOc2c1cc(Cc1ccc(Cl)nc1)c1ccccc21` [Example 80, 6-((6-chloropyridin-3-yl)methyl)-2,3-dihydro-4H-naphtho[2,1-e][1,3]oxazin-4-one], for which the “activity (%) at 10 μM” value was 97% and the EC50 was found to be 81 nM.

For `N#CC1CCN(Cc2cc3c(c4ccccc24)OCN([C@H]2CCC[C@@H]2O)C3=O)C1` (stereo partly drawn) [Example 75, 1-((3-((1S,2S)-2-hydroxycyclopentyl)-4-oxo-3,4-dihydro-2H-naphtho[2,1-e][1,3]oxazin-6-yl)methyl)pyrrolidine-3-carbonitrile (diastereoisomer)], the “activity (%) at 10 μM” value turned out to be 102% and the EC50 was determined as 60 nM.

Consider `Cn1cc(-c2ccc(Cc3ccc4c(c3)C(=O)N(c3ccccc3F)CO4)cn2)cn1` [Example 88, 3-(2-fluorophenyl)-6-((6-(1-methyl-1H-pyrazol-4-yl)pyridin-3-yl)methyl)-2,3-dihydro-4H-1,3-benzoxazin-4-one], for which the “activity (%) at 10 μM” value was 115% and the EC50 worked out at 230 nM.

As to `COc1c(Cc2ccc(-n3cccn3)nc2)cc2c(c1F)OCN([C@H]1CCC[C@@H]1O)C2=O` (single isomer, unassigned) [Example 55, 8-fluoro-3-(trans-2-hydroxycyclopentyl)-7-methoxy-6-((6-(1H-pyrazol-1-yl)pyridin-3-yl)methyl)-2,3-dihydro-4H-1,3-benzoxazin-4-one (optical isomer)], the “activity (%) at 10 μM” value turned out to be 98% and the EC50 was 14 nM.

`COc1ccc(Cc2cc3c(c(C)c2C)OCN([C@H]2COCC[C@@H]2O)C3=O)cn1` [Example 29, 3-((3S,4S)-4-hydroxytetrahydro-2H-pyran-3-yl)-6-((6-methoxypyridin-3-yl)methyl)-7,8-dimethyl-2,3-dihydro-4H-1,3-benzoxazin-4-one]: the “activity (%) at 10 μM” value amounted to 106% and the EC50 amounted to 14 nM.

For `Cc1cc2c(cc1Cc1ccc(-n3cccn3)cc1)C(=O)N([C@H]1COCC[C@@H]1O)CO2` [Example 50, 1,5-anhydro-2,4-dideoxy-2-(7-methyl-4-oxo-6-(4-(1H-pyrazol-1-yl)benzyl)-2H-1,3-benzoxazin-3(4H)-yl)-L-threo-pentitol], the “activity (%) at 10 μM” value was 120% and the EC50 came out at 8.6 nM.

Turning to `Cc1ccc(Cc2cc3c(c(C)c2C)OCN([C@H]2CCC[C@@H]2O)C3=O)cn1` [Example 11, 3-((1S,2S)-2-hydroxycyclopentyl)-7,8-dimethyl-6-((6-methylpyridin-3-yl)methyl)-2,3-dihydro-4H-1,3-benzoxazin-4-one], the “activity (%) at 10 μM” value turned out to be 95% and the EC50 was 8.5 nM.

For the molecule `Cc1cc2c(cc1Cc1ccc(-c3cn(C)nc3C)nc1)C(=O)N(CC1CCCO1)CO2` (stereo not drawn) [Example 82, 6-((6-(1,3-dimethyl-1H-pyrazol-4-yl)pyridin-3-yl)methyl)-7-methyl-3-(tetrahydrofuran-2-ylmethyl)-2,3-dihydro-4H-1,3-benzoxazin-4-one], the “activity (%) at 10 μM” value amounted to 93% and the EC50 is 90 nM.

With `COc1ccc(Cc2cc3c(c4ccccc24)OCN([C@H]2COCC[C@@H]2O)C3=O)cn1` [Example 46, 1,5-anhydro-2,4-dideoxy-2-(6-((6-methoxypyridin-3-yl)methyl)-4-oxo-2H-naphtho[2,1-e][1,3]oxazin-3(4H)-yl)-L-threo-pentitol], the “activity (%) at 10 μM” value is given as 109% and the EC50 was 4.9 nM.

With `Cc1c(Cc2ccc(Cl)nc2)cc2c(c1F)OCN([C@H]1CCC[C@@H]1O)C2=O` [Example 16, 6-((6-chloropyridin-3-yl)methyl)-8-fluoro-3-((1S,2S)-2-hydroxycyclopentyl)-7-methyl-2,3-dihydro-4H-1,3-benzoxazin-4-one], the “activity (%) at 10 μM” value is recorded as 102% and the EC50 stood at 20 nM.

Take `COc1ccc(Cc2cc3c(cc2C)OCN([C@H]2CCC[C@@H]2O)C3=O)cc1` [Example 73, 3-((1S,2S)-2-hydroxycyclopentyl)-6-(4-methoxybenzyl)-7-methyl-2,3-dihydro-4H-1,3-benzoxazin-4-one]: the “activity (%) at 10 μM” value was 97% and the EC50 came out at 59 nM.

On to `COc1ccc(Cc2cc3c(c(C)c2C)OCN([C@H]2COCC[C@@H]2O)C3=O)cc1` (single isomer, unassigned) [Example 17, 1,5-anhydro-2,4-dideoxy-2-(6-(4-methoxybenzyl)-7,8-dimethyl-4-oxo-2H-1,3-benzoxazin-3(4H)-yl)-threo-pentitol (optical isomer)], for which the “activity (%) at 10 μM” value was 112% and the EC50 amounted to 27 nM.

For the origin of these results see US10323027B2, “2,3-dihydro-4H-1,3-benzoxazin-4-one derivatives as modulators of cholinergic muscarinic M1 receptor” (Takeda Pharmaceutical Company Limited, priority 2015, dated 2019).
